# Test results from the supplement of paper PMC10307832.
# Compound: CC(C)C[C@@H](C(=O)N[C@H](C(=O)OC1CCCC1)c1ccccc1)[C@H](O)C(=O)NO [Tosedostat] + O=C(c1cc(Cc2n[nH]c(=O)c3ccccc23)ccc1F)N1CCN(C(=O)C2CC2)CC1 [Olaparib] (partner 8 µM)
# Test: relative viability (nuclei count vs DMSO), 5 days (fraction); higher = more cells survive
# Conditions: first compound 0.02 µM
# Summary of the method: (§1)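 Lung cancer cell lines in 1536-well plates got either a single drug or a fixed anchor-drug dose together with five library-drug doses (not always all listed) in √10 steps, by pin tool, on the day after seeding. Nuclei were counted after 5 days, and relative viability is the treated-to-vehicle ratio of nuclei counts. Values are medians of duplicate plates.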
row,Cell Line,relative viability
1,NCI-H1734,0.651
2,EPLC-272H,0.879
3,NCI-H3122,0.631
4,NCI-H1651,0.201
5,NCI-H1993,1.13
6,HCC-15,0.799
7,NCI-H1793,0.884
8,EKVX,0.754
9,LC-2-ad,0.774
10,NCI-H1666,0.726
11,NCI-H1944,0.429
12,ABC-1,0.842
13,NCI-H358,0.547
14,PC-3 [JPC-3],1.11
15,LOU-NH91,0.948

# Same assay, conditions: first compound 0.06325 µM
row,Cell Line,relative viability
1,BEN,0.952
2,HARA,0.853
3,HCC-78,0.796
4,NCI-H647,0.446
5,LCLC-97TM1,0.436
6,NCI-H2126,0.979
7,A-427,0.674
8,NCI-H650,0.362
9,RERF-LC-KJ,0.999
10,NCI-H1915,0.234
11,NCI-H441,0.533
12,NCI-H1975,0.8
13,NCI-H1395,0.463
14,201T,0.913
15,HCC-827,0.526
16,NCI-H322M,0.713
17,NCI-H1437,0.615

row,Cell Line,relative viability
1,PC-14,0.256
2,NCI-H1734,0.505
3,EPLC-272H,0.711
4,NCI-H3122,0.593
5,NCI-H1651,0.203
6,NCI-H1993,1.04
7,HCC-15,0.723
8,NCI-H1793,0.879
9,EKVX,0.834
10,LC-2-ad,0.707
11,NCI-H1666,0.732
12,NCI-H1944,0.427
13,NCI-H2085,0.86
14,ABC-1,0.784
15,NCI-H358,0.679
16,PC-3 [JPC-3],1.11
17,LOU-NH91,0.901

# Same assay, conditions: first compound 0.2 µM
row,Cell Line,relative viability
1,BEN,1.31
2,HARA,0.779
3,HCC-78,0.766
4,NCI-H647,0.506
5,LCLC-97TM1,0.309
6,NCI-H2126,0.843
7,A-427,0.708
8,NCI-H650,0.381
9,RERF-LC-KJ,0.829
10,NCI-H1915,0.244
11,NCI-H441,0.364
12,NCI-H1975,0.824
13,NCI-H1395,0.469
14,201T,0.874
15,HCC-827,0.602
16,NCI-H322M,0.67
17,NCI-H1437,0.659

row,Cell Line,relative viability
1,PC-14,0.193
2,NCI-H1734,0.577
3,EPLC-272H,0.557
4,NCI-H3122,0.574
5,NCI-H1651,0.168
6,NCI-H1993,0.943
7,HCC-15,0.62
8,NCI-H1793,0.763
9,EKVX,0.818
10,LC-2-ad,0.714
11,NCI-H1666,0.72
12,NCI-H1944,0.414
13,NCI-H2085,0.784
14,ABC-1,0.843
15,NCI-H358,0.438
16,PC-3 [JPC-3],1
17,LOU-NH91,0.893

# Same assay, conditions: first compound 0.6325 µM
row,Cell Line,relative viability
1,BEN,1.09
2,HARA,0.519
3,HCC-78,0.754
4,NCI-H647,0.376
5,LCLC-97TM1,0.236
6,NCI-H2126,0.769
7,A-427,0.757
8,NCI-H650,0.271
9,RERF-LC-KJ,0.757
10,NCI-H1915,0.203
11,NCI-H441,0.384
12,NCI-H1975,0.63
13,NCI-H1395,0.412
14,201T,0.896
15,HCC-827,0.317
16,NCI-H322M,0.532
17,NCI-H1437,0.596

row,Cell Line,relative viability
1,PC-14,0.152
2,NCI-H1734,0.431
3,EPLC-272H,0.471
4,NCI-H3122,0.508
5,NCI-H1651,0.156
6,NCI-H1993,0.736
7,HCC-15,0.495
8,NCI-H1793,0.698
9,EKVX,0.576
10,LC-2-ad,0.638
11,NCI-H1666,0.638
12,NCI-H1944,0.355
13,NCI-H2085,0.784
14,ABC-1,0.848
15,NCI-H358,0.229
16,PC-3 [JPC-3],0.921
17,LOU-NH91,0.79

# Same assay, conditions: first compound 2 µM
row,Cell Line,relative viability
1,BEN,1.02
2,HARA,0.662
3,HCC-78,0.75
4,NCI-H647,0.51
5,LCLC-97TM1,0.251
6,NCI-H2126,0.757
7,A-427,0.747
8,NCI-H650,0.219
9,RERF-LC-KJ,0.747
10,NCI-H1915,0.236
11,NCI-H441,0.322
12,NCI-H1975,0.659
13,NCI-H1395,0.402
14,201T,0.862
15,HCC-827,0.506
16,NCI-H322M,0.635
17,NCI-H1437,0.604

row,Cell Line,relative viability
1,PC-14,0.122
2,NCI-H1734,0.536
3,EPLC-272H,0.293
4,NCI-H3122,0.562
5,NCI-H1651,0.141
6,NCI-H1993,0.769
7,HCC-15,0.44
8,NCI-H1793,0.669
9,EKVX,0.721
10,LC-2-ad,0.695
11,NCI-H1666,0.777
12,NCI-H1944,0.371
13,NCI-H2085,0.782
14,ABC-1,0.491
15,NCI-H358,0.211
16,PC-3 [JPC-3],0.747
17,LOU-NH91,0.768

# Compound: CC1=NN=C(O1)C2=NN=C(C=C2)N3CCC(CC3)OC4=C(C=CC(=C4)F)Cl + NC(=O)Nc1cc(-c2cccc(F)c2)sc1C(=O)N[C@H]1CCCNC1 [AZD7762] (partner 0.2 µM)
# Test: as above
# Conditions: first compound 0.253 µM
# Summary of the method: as §1
row,Cell Line,relative viability
1,BEN,0.681
2,HARA,0.416
3,HCC-78,0.457
4,NCI-H647,0.462
5,LCLC-97TM1,0.264
6,NCI-H2126,0.893
7,A-427,0.726
8,NCI-H650,0.943
9,RERF-LC-KJ,0.53
10,NCI-H1915,0.501
11,NCI-H441,0.621
12,NCI-H1395,0.377
13,201T,0.447
14,HCC-827,0.299
15,NCI-H322M,0.51
16,NCI-H1437,0.726

row,Cell Line,relative viability
1,PC-14,0.28
2,NCI-H1734,0.612
3,EPLC-272H,0.236
4,NCI-H3122,0.444
5,NCI-H1651,0.423
6,NCI-H1993,0.713
7,HCC-15,0.733
8,NCI-H1793,0.411
9,EKVX,0.517
10,LC-2-ad,0.394
11,NCI-H1666,0.686
12,NCI-H1944,0.368
13,NCI-H2085,0.636
14,ABC-1,0.852
15,NCI-H358,0.559
16,PC-3 [JPC-3],0.702

# Same assay, conditions: first compound 0.8 µM
row,Cell Line,relative viability
1,BEN,0.752
2,HARA,0.305
3,HCC-78,0.483
4,NCI-H647,0.294
5,NCI-H2126,0.854
6,A-427,0.526
7,NCI-H650,0.642
8,RERF-LC-KJ,0.569
9,NCI-H1915,0.276
10,NCI-H441,0.632
11,NCI-H1395,0.378
12,201T,0.481
13,HCC-827,0.158
14,NCI-H322M,0.563
15,NCI-H1437,0.851
16,PC-14,0.271

row,Cell Line,relative viability
1,NCI-H1734,0.413
2,EPLC-272H,0.369
3,NCI-H3122,0.469
4,NCI-H1651,0.412
5,NCI-H1993,0.69
6,HCC-15,0.571
7,NCI-H1793,0.482
8,EKVX,0.434
9,LC-2-ad,0.391
10,NCI-H1666,0.765
11,NCI-H1944,0.348
12,NCI-H2085,0.667
13,ABC-1,0.712
14,NCI-H358,0.521
15,PC-3 [JPC-3],0.602
16,LOU-NH91,0.715

# Same assay, conditions: first compound 2.53 µM
row,Cell Line,relative viability
1,BEN,0.878
2,HARA,0.387
3,HCC-78,0.463
4,NCI-H647,0.472
5,LCLC-97TM1,0.235
6,NCI-H2126,0.929
7,A-427,0.824
8,NCI-H650,0.985
9,RERF-LC-KJ,0.564
10,NCI-H1915,0.464
11,NCI-H441,0.69
12,NCI-H1975,0.717
13,NCI-H1395,0.392
14,201T,0.531
15,HCC-827,0.213
16,NCI-H322M,0.581
17,NCI-H1437,0.93

row,Cell Line,relative viability
1,PC-14,0.374
2,NCI-H1734,0.672
3,EPLC-272H,0.268
4,NCI-H3122,0.503
5,NCI-H1651,0.448
6,NCI-H1993,0.769
7,HCC-15,0.639
8,NCI-H1793,0.756
9,EKVX,0.465
10,LC-2-ad,0.398
11,NCI-H1666,0.79
12,NCI-H1944,0.561
13,NCI-H2085,0.797
14,ABC-1,0.597
15,NCI-H358,0.614
16,PC-3 [JPC-3],0.728
17,LOU-NH91,0.816

# Same assay, conditions: first compound 8 µM
row,Cell Line,relative viability
1,BEN,0.729
2,HARA,0.337
3,HCC-78,0.373
4,NCI-H647,0.248
5,LCLC-97TM1,0.205
6,NCI-H2126,0.849
7,A-427,0.724
8,NCI-H650,0.882
9,RERF-LC-KJ,0.554
10,NCI-H1915,0.381
11,NCI-H441,0.608
12,NCI-H1975,0.719
13,NCI-H1395,0.404
14,201T,0.505
15,HCC-827,0.2
16,NCI-H322M,0.543
17,NCI-H1437,0.848

row,Cell Line,relative viability
1,PC-14,0.253
2,NCI-H1734,0.662
3,EPLC-272H,0.197
4,NCI-H3122,0.485
5,NCI-H1651,0.386
6,NCI-H1993,0.652
7,HCC-15,0.608
8,NCI-H1793,0.407
9,EKVX,0.535
10,LC-2-ad,0.379
11,NCI-H1666,0.715
12,NCI-H1944,0.441
13,NCI-H2085,0.607
14,ABC-1,0.45
15,NCI-H358,0.544
16,PC-3 [JPC-3],0.914
17,LOU-NH91,0.717
